Tests used:
Format in all cases: in vivo
[1] = Half-life in the blood plasma of humans; settings: human
Procedure: The measurement is determined by calculating the half-life of a nucleotide synthesis inhibitor in the blood of a mammal, which is relevant for pharmacokinetic ratios in humans, or in humans in phase I clinical trial development, and comparing it with that of a known nucleotide synthesis inhibitor. The term “half-life” is understood as meaning the time in which the concentration of the nucleotide synthesis inhibitor in the blood plasma is halved. This invention for finding nucleotide synthesis inhibitors which have lower side effects therefore includes

[2] = system: adjuvant-induced arthritis; assay: Adjuvant-induced arthritis model, colestyramine 4 hours after compound 1 (Example 3); settings: for Increase in body weight / Reduction in arthritis score / Reduction in paw swelling / Surviving animals: orally
Procedure: Example 3 illustrates an experiment to determine whether the action of the minimally effective dose of compound 1 is reduced by administration of colestyramine at a time interval of 4 hours. This was investigated in the adjuvant-induced arthritis model. The model was carried out according to Example 1. Compound 1 was administered orally in 1% CMC daily from the start to the end of the investigation in a dose of 2.5 mg/kg/day. Colestyramine was likewise administered orally in 1% CMC 4 hours after the administration of compound 1. The corresponding control groups received equal volumes of a 1% CMC at the corresponding times.
In Example 3, we investigated whether relatively constant blood levels existing over a fairly long time were responsible for the desired effects of compound 1 on the immune system, or whether blood levels occurring for a short time (peak blood levels) of compound 1 caused this effect.
For this, compound 1 was administered orally once daily at the lowest efficacious dose of 2.5 mg/kg/day (see Example 1). In the corresponding comparison groups, colestyramine was administered 4 hours after administration of compound 1 in order to lower the blood levels of compound 1 in an accelerated manner after the absorption phase had taken place. By means of this, the action of blood levels of compound 1 existing for different lengths of time on the immunologically related pathological processes in adjuvant-induced arthritis in the rat was investigated.

[3] = system: adjuvant-induced arthritis; assay: Adjuvant-induced arthritis model, dose-response relationship (Example 1); settings: for Increase in body weight / Reduction in arthritis score / Reduction in paw swelling / Surviving animals: day 21
Description: The dose-response relationship of N-(4-trifluoromethylphenyl)-2-cyano-3-hyroxycrotonamide, hereafter referred to as compound 1, was drawn up in the adjuvant-induced arthritis model (method of Pearson C. M. and Wood F. D.; Arth. Rheum. 2: 44 (1959), and Taurog J. D., Argentieri D. C. et al., Meth. Enzymol. 162: 339 (1988)). The swelling of the paws, the formation of generalized symptoms of arthritis, know as the score index, the increase in the body weight during the experiment, and the survival of the animals were determined.
Compound 1 was administered orally from the start of the experiment onwards up to the end on day 21 in a 1% strength carboxymethlcellulose solution, (CMC). The control groups received corresponding amounts of 1% CMC without the active compound.
Six male Lewis rats having a body weight of approximately 210 g were employed in each experimental group.
Negative numbers indicate the worsening of the respective measurement parameter.
In the adjuvant-induced arthritis model in the rat, autoimmune reactions are observed which correspond to the autoimmune diseases of the rheumatic type in humans.

[4] = 2.5 mg/kg/day of compound 1 alone
[5] = 2.5 mg/kg/day of compound 1 and 1000 mg/kg/day of cholestyramine 4 hours later

Structure (SMILES): C/C(O)=C(\C#N)C(=O)Nc1ccc(C(F)(F)F)cc1 [compound 1, N-(4-trifluoromethylphenyl)-2-cyano-3-hydroxycrotonamide]
- half-life [1]: ≤ 14.6 days
- half-life ([1]; approximately): ~14 days
- desired action on adjuvant-induced arthritis with versus without colestyramine 4 hours after compound 1 ([2]; 2.5 mg/kg/day of compound 1): No difference was seen
- Increase in body weight [2, 4]: 20%
- Reduction in arthritis score [2, 4]: 70%
- Reduction in paw swelling [2, 4]: 78%
- Surviving animals [2, 4]: 100%
- Increase in body weight [2, 5]: 20%
- Reduction in arthritis score [2, 5]: 81%
- Reduction in paw swelling [2, 5]: 86%
- Surviving animals [2, 5]: 100%
- therapeutic action ([3]; 1 mg/kg/day): an action could no longer be determined
- Increase in body weight ([3]; 1 mg/kg/day orally): 10%
- Reduction in arthritis score ([3]; 1 mg/kg/day orally): −11%
- Reduction in paw swelling ([3]; 1 mg/kg/day orally): −9%
- Surviving animals ([3]; 1 mg/kg/day orally): 100%
- Increase in body weight ([3]; 2.5 mg/kg/day orally): 20%
- Reduction in arthritis score ([3]; 2.5 mg/kg/day orally): 70%
- Reduction in paw swelling ([3]; 2.5 mg/kg/day orally): 78%
- Surviving animals ([3]; 2.5 mg/kg/day orally): 100%
- Increase in body weight ([3]; 5 mg/kg/day orally): 37%
- Reduction in arthritis score ([3]; 5 mg/kg/day orally): 83%
- Reduction in paw swelling ([3]; 5 mg/kg/day orally): 96%
- Increase in body weight ([3]; 7.5 mg/kg/day orally): 25%
- Reduction in arthritis score ([3]; 7.5 mg/kg/day orally): 87%
- Reduction in paw swelling ([3]; 7.5 mg/kg/day orally): 105%
- Increase in body weight ([3]; 10 mg/kg/day orally): 11%
- Reduction in arthritis score ([3]; 10 mg/kg/day orally): 84%
- Reduction in paw swelling ([3]; 10 mg/kg/day orally): 96%
- Increase in body weight ([3]; 15 mg/kg/day orally): 8%
- Reduction in arthritis score ([3]; 15 mg/kg/day orally): 91%
- Reduction in paw swelling ([3]; 15 mg/kg/day orally): 106%
- Increase in body weight ([3]; 25 mg/kg/day orally): −2%
- Reduction in arthritis score ([3]; 25 mg/kg/day orally): 96%
- Reduction in paw swelling ([3]; 25 mg/kg/day orally): 114%
- lowest efficacious dose ([3]; orally once daily, adjuvant-induced arthritis, rat): 2.5 mg/kg/day

— patent US6716411B2, “Method for finding nucleotide synthesis inhibitors having fewer side effects” (Aventis Pharma Deustschland GmbH, priority 1999, dated 2004)
